# Measured values: ChEMBL document CHEMBL1201862, “PubChem BioAssay data set” (2004)
#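 Cultured in 96-well plates, cells were exposed to test compound for 48 hours across five concentrations. GI50 = concentration required for 50% inhibition of growth.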 The source made the active and inactive calls. No stated cut-off is given here; in the data, active = GI50 up to about 1.1 µM and inactive = higher.
# Tests used:
# Test in all cases: NCI anticancer screen, dose series, 48 h
# [1] = test system: HCT-116
# [2] = test system: HCT-15
# [3] = test system: UACC-257
# [4] = test system: NCI-H522
# [5] = test system: HCC 2998
# [6] = test system: DLD-1
# [7] = test system: SN12C
# [8] = test system: SK-OV-3
# [9] = test system: MOLT-4
# [10] = test system: RXF 393
# [11] = test system: Hs-578T
# [12] = test system: K562
# [13] = test system: T47D
# [14] = test system: NCI-H23
# [15] = test system: IGROV-1
# [16] = test system: SF-268
# [17] = test system: NCI-H460
smiles,measurement,setting,value
O=C1c2ccccc2C(=O)c2sc(Nc3ccc(Cl)c(Cl)c3)nc21,GI50,[1],3 µM (inactive)
same,GI50,[2],2.26 µM
same,GI50,[3],4.01 µM (inactive)
same,GI50,[4],2.07 µM (inactive)
same,GI50,[5],15.3 µM (inactive)
same,GI50,[6],2.15 µM (inactive)
same,GI50,[7],1.83 µM (inactive)
same,GI50,[8],18 µM (inactive)
same,GI50,[9],1.02 µM (active)
same,GI50,[10],7.4 µM (inactive)
same,GI50,[11],6.92 µM (inactive)
same,GI50,[12],3.21 µM (inactive)
same,GI50,[13],4.03 µM (inactive)
same,GI50,[14],2.31 µM (inactive)
same,GI50,[15],3.82 µM (inactive)
same,GI50,[16],4.97 µM (inactive)
same,GI50,[17],12.5 µM (inactive)
